According to PMC9618103, “Exploratory toxicology studies of 2,3-substituted imidazo[1,2-a]pyridines with antiparasitic and anti-inflammatory properties” (Toxicology Research, 2022):

Assays:
Wistar rats [1] = assay: Subacute toxicity: glomerular filtration rate (creatinine clearance) and serum creatinine; format: in vivo; settings: for Glomerular Filtration Rate / Serum Creatinine: rats, p.o., 14 days at 10% of LD50 (CCl4, APAP: once daily, 3 days), mean ± SEM, n = 6
Experimental: (§1) For toxicity tests, acclimatized rats were randomly allocated to 12 groups (n = 12 for the control and n = 6 for the rest groups). […] Meanwhile, the aforementioned vehicles (dose volume 2 mL/kg b.w.) were administered to 3 groups. […] The animals were then housed in individual metabolic cages to collect urine for a period of 6 h and then the volume was recorded. Afterward, blood samples were obtained and the serum was separated by centrifugation at 1,620 × g for 10 min at room temperature.
(§2) Serum and urinary creatinine were determined by the Jaffe method. With this value, evaluation was made of the fractional excretion of sodium (FES), fractional excretion of potassium (FEP), and fractional excretion of glucose.[30]^,[31] The GFR was calculated from clearance of endogenous creatinine using the conventional equation:where GFR (CCr) is the creatinine clearance rate (mL/min); UCr and SCr are the creatinine concentrations (mg/dL) in urine and serum, respectively; and φ is the urinary flow rate (UFR) (mL/min). To avoid the error from the tubular secretion of creatinine found in males, only female animals were used.

Wistar rats [2] = assay: Subacute toxicity: water and electrolyte balance (osmolality, sodium, potassium, urinary flow); format: in vivo; settings: for Filtered Load of Potassium / Filtered Load of Sodium / Fractional Excretion of Potassium / Fractional Excretion of Sodium / Serum Osmolality / Serum Potassium / Serum Sodium / U/S Osm ratio / Urinary Flow Rate / Urinary Potassium Excretion / Urinary Sodium Excretion: rats, p.o., 14 days at 10% of LD50 (CCl4, APAP: once daily, 3 days), mean ± SEM, n = 6
Experimental: as §1
Osmolality of serum and urine were assessed (in triplicate) by using a vapor pressure osmometer (Wescor 5500, Logan, United States). U/S ratio as well as osmolar (COsm) and free water clearances were calculated via conventional equations:where UOsm and SOsm are the osmolality values (mOsm/Kg) in urine and serum, respectively, and φ is the UFR (mL/min).
(§3) The levels of sodium and potassium were measured in urine and serum using a flame photometer (Corning 400, Medfield, United States). Calculation was made of the clearance, fractional excretion, and filtered load of sodium (FLS), filtered load of potassium (FLP), and filtered load of glucose (FLG) using the conventional equations:where CX is the clearance rate of X (mL/min), CCr is the creatinine clearance rate (mL/min), UX and SX are the […] concentrations of X, respectively, φ is the UFR (mL/min), FEX is the fractional excretion (%) of X, and FLX is the filtered load of X in μEq/min (Na^+ or K^+) or mg/min (glucose).

NIH mice = assay: Acute oral toxicity, median lethal dose (LD50); format: in vivo; settings: for Category (GHS acute oral toxicity hazard category) / Hazard statement (GHS): based on oral LD50, according to GHS [39]; for Oral LD50: female NIH mice, single oral dose, 14 days observation
Experimental: All treatments were administrated orally (p.o.) according to the scheme mentioned below.
Acute toxicity tests were performed in order to measure the median lethal dose (LD50). After acclimatization, mice were randomly allocated to ten groups (n = 4), including the control group (e.g. water, Tween 80, or PO) and the experimental groups, each with a single dose of one of the IMPYs at 4 levels of dose (0.5, 1.0, 2.0, and 4.0 g/kg b.w.).
Animals were food deprived overnight prior to administration of the chemical compounds or vehicles, and food was returned 4 h after dosing. Animals had access to water ad libitum throughout the study.[27]^,[28]

Wistar rats [3] = assay: Subacute toxicity: serum alanine aminotransferase and alkaline phosphatase activity; format: in vivo; settings: serum; rats, p.o., 14 days at 10% of LD50 (CCl4, APAP: once daily, 3 days); mean ± SEM, n = 6
Experimental: (§4) For toxicity tests, acclimatized rats were randomly allocated to 12 groups (n = 12 for the control and n = 6 for the rest groups). […] Meanwhile, the aforementioned vehicles (dose volume 2 mL/kg b.w.) were administered to 3 groups. […] Upon completion of the 14-day treatments and before sample collection, the bladders of animals were emptied by gentle pressure on the lower part of the abdomen to induce urination. The animals were then housed in individual metabolic cages to collect urine for a period of 6 h and then the volume was recorded. Afterward, blood samples were obtained and the serum was separated by centrifugation at 1,620 × g for 10 min at room temperature.
The activities of serum alanine aminotransferase (ALT) and alkaline phosphatase (ALP) were measured with standard kits (RANDOX, Laboratories Ltd, UK).

[4] = tested on: renal secretory pathway of organic anions; assay: Active tubular secretion of organic acids (PAH uptake in kidney cortex slices); format: in vivo, rats; settings: for PAH t/m ratio: kidney cortex slices, PAH 1 mM, 1 h, 25 °C, rats, p.o., 14 days at 10% of LD50 (CCl4, APAP: once daily, 3 days), mean ± SEM, n = 6
Experimental: as §4
p-Aminohippuric acid (PAH) was used as an indicator of the renal secretory pathway of organic anions. Kidneys were extracted and immediately submerged in Ringer solution (pH = 7.4 and mOsm = 290 ± 10 mOsm/kg) under constant bubbling with O2/CO2 (95/5%). The kidneys were decapsulated and slices of the kidney cortex were obtained, which were then incubated in Ringer solution containing PAH (1 mM) for 1 h at 25 °C under constant bubbling with O2/CO2 (95/5%). The levels of PAH were quantified with the Bratton-Marshall method and results were expressed as the PAH tissue/medium ratio (PAH t/m ratio).[31]^,[32]

Wistar rats [5] = assay: Hepatic and renal reactive oxygen species (DCF formation); format: in vivo; settings: rats, p.o., 14 days at 10% of LD50 (CCl4, APAP: once daily, 3 days), mean ± SEM, n = 6; for Renal ROS: kidney; for Hepatic ROS: liver
Experimental: as §4
Reactive oxygen species (ROS) were measured by formation of 2′,7′-dichlorofluorescein (DCF). An aliquot of 10 μL (kidney) or 5 μL (liver) of the homogenates was added to 1,940 or 1,945 μL of TRIS:HEPES (18:1) and was incubated in the presence of 50 μL of 2′,7′-dichlorofluorescein diacetate for 1 h at 37 °C. In order to quench the reaction, the mixture was chilled using an ice bath. The fluorescence was measured using a Shimadzu fluorometer (Japan; λex = 488 nm; λem = 525 nm). The results were expressed as nM DCF formed per mg protein/h.[33]
(§5) The protein concentration in homogenates was measured by the Bradford method.[29]

Wistar rats [6] = assay: Hepatic and renal lipid peroxidation (lipid-soluble fluorescence); format: in vivo; settings: rats, p.o., 14 days at 10% of LD50 (CCl4, APAP: once daily, 3 days), mean ± SEM, n = 6; for Renal Lipoperoxidation: kidney; for Hepatic Lipoperoxidation: liver
Experimental: as §4
Lipid peroxidation (LPO) was evaluated by the formation of lipid-soluble fluorescence, as previously described. Briefly, kidney and liver tissues were homogenized in 3 and 5 mL of phosphate buffer (0.2 M, pH = 7.4), respectively. A volume of 1 mL (kidney) or 0.8 mL (liver) of the homogenates was added to 7 mL of chloroform-methanol (2:1, v/v), and after 15 s of vortex mixing, the resulting mixture was cooled using an ice bath for 30 min to allow for phase separation. The fluorescence of the organic phase was measured using a Shimadzu fluorometer (Japan; λex = 370 nm; λem = 430 nm), whose sensitivity was adjusted to 140 fluorescence units by using 1 μg/mL of quinine sulfate in 50 mM H2SO4. The results were expressed as relative fluorescence units per milligram of protein.[33]
as §5

Wistar rats [7] = assay: Subacute toxicity: serum and urine glucose, urinary protein excretion; format: in vivo; settings: for Filtered Load of Glucose / Fractional Excretion of Glucose / Serum Glucose / Urinary Glucose Excretion / Urinary Protein Excretion: rats, p.o., 14 days at 10% of LD50 (CCl4, APAP: once daily, 3 days), mean ± SEM, n = 6
Experimental: as §1
Serum and urine glucose concentration were calculated using GOD-PAP kits (RANDOX, Laboratories Ltd, UK). Urinary protein was quantified using the Bradford method.[29]
as §2, §3

[8] = in comparison to the control group

Row | Compound | Glomerular Filtration Rate (Wistar rats [1]) | Serum Creatinine (Wistar rats [1]) | Filtered Load of Potassium (Wistar rats [2]) | Filtered Load of Sodium (Wistar rats [2]) | Fractional Excretion of Potassium (Wistar rats [2]) | Fractional Excretion of Sodium (Wistar rats [2]) | Serum Osmolality (Wistar rats [2]) | Serum Potassium (Wistar rats [2]) | Serum Sodium (Wistar rats [2]) | U/S Osm ratio (Wistar rats [2]) | Urinary Flow Rate (Wistar rats [2]) | Urinary Potassium Excretion (Wistar rats [2]) | Urinary Sodium Excretion (Wistar rats [2]) | Category (GHS acute oral toxicity hazard category) (NIH mice) | Hazard statement (GHS) (NIH mice) | Oral LD50 (NIH mice) | Alanine Aminotransferase (Wistar rats [3]) | Alkaline Phosphatase (Wistar rats [3]) | PAH t/m ratio [4] | Renal ROS (Wistar rats [5]) | other results
1 | CCOC(=O)c1nc2ccccn2c1[N+](=O)[O-] [Compound 1b, ethyl 3-nitroimidazo[1,2-a]pyridine-2-carboxylate] | 0.25 ± 0.03 mL/min | 1.38 ± 0.07 mg/dL | 1.70 ± 0.21 µEq/min | 39.31 ± 4.28 µEq/min | 15.58 ± 3.10% | 0.85 ± 0.09% | 294.04 ± 0.88 mOsm/kg | 6.74 ± 0.39 mEq/L | 155.42 ± 3.63 mEq/L | 2.54 ± 0.20 | 4.54 ± 0.76 µL/min | 0.24 ± 0.03 µEq/min | 0.34 ± 0.05 µEq/min | 5 | May be harmful if swallowed | >4.000 g/kg b.w. | 30.10 ± 2.99 U/L | 101.41 ± 16.30 U/L | 2.00 ± 0.13 | 227.17 ± 21.01 nM de DCF/mg protein/h | serum creatinine, change in words (Wistar rats [1]; compared with 1a and 3b): higher; GFR, change in words (Wistar rats [1]; [8]): lower; serum creatinine level, change in words (Wistar rats [1]; [8]): greater; FLS (filtered load of sodium), change in words (Wistar rats [2]; in comparison with the control group): decreased; Hepatic ROS (Wistar rats [5]): 285.90 ± 37.33 nM de DCF/mg protein/h; Renal Lipoperoxidation (Wistar rats [6]): 0.38 ± 0.07 URF/mg protein; Hepatic Lipoperoxidation (Wistar rats [6]): 0.74 ± 0.07 URF/mg protein; FEG (fractional excretion of glucose), change in words (Wistar rats [7]; compared to control values): increased; FLG (filtered load of glucose), change in words (Wistar rats [7]; compared to control values): reduced; Filtered Load of Glucose (Wistar rats [7]): 0.31 ± 0.04 mg/min; Fractional Excretion of Glucose (Wistar rats [7]): 0.05 ± 3.9 E-3%; Serum Glucose (Wistar rats [7]): 121.27 ± 7.88 mg/dL; Urinary Glucose Excretion (Wistar rats [7]): 141.87 ± 18.46 ng/min; Urinary Protein Excretion (Wistar rats [7]): 0.57 ± 0.07 µg/min
2 | N#Cc1cn2ccccc2n1 [Compound 2a, imidazo[1,2-a]pyridine-2-carbonitrile] | 0.86 ± 0.28 mL/min | 0.66 ± 0.13 mg/dL | 5.07 ± 1.44 µEq/min | 124.49 ± 40.90 µEq/min | 13.55 ± 1.23% | 0.55 ± 0.13% | 291.74 ± 1.34 mOsm/kg | 6.03 ± 0.31 mEq/L | 142.94 ± 3.88 mEq/L | 3.30 ± 0.22 | 6.44 ± 1.39 µL/min | 0.64 ± 0.16 µEq/min | 0.51 ± 0.09 µEq/min | 4 | Harmful if swallowed | 0.794 g/kg b.w. | 42.68 ± 2.04 U/L | 104.44 ± 19.76 U/L | 1.07 ± 0.11 | 171.33 ± 22.04 nM de DCF/mg protein/h | PAH t/m ratio, change in words ([4]; versus control (2a also versus Tween 80 and 2b)): decreased; Hepatic ROS (Wistar rats [5]): 285.53 ± 42.87 nM de DCF/mg protein/h; Renal Lipoperoxidation (Wistar rats [6]): 0.30 ± 0.02 URF/mg protein; Hepatic Lipoperoxidation (Wistar rats [6]): 0.71 ± 0.04 URF/mg protein; Filtered Load of Glucose (Wistar rats [7]): 0.90 ± 0.29 mg/min; Fractional Excretion of Glucose (Wistar rats [7]): 0.02 ± 3.9E-3%; Serum Glucose (Wistar rats [7]): 103.46 ± 3.16 mg/dL; Urinary Glucose Excretion (Wistar rats [7]): 136.89 ± 32.82 ng/min; Urinary Protein Excretion (Wistar rats [7]): 0.65 ± 0.13 µg/min
